Experimental data: patent US20120237503A1, “Screening Method and Therapy with Agonists of DDAH I” (UCL BUSINESS PLC, priority 2009, published 2012)
“Also recorded” adds a separate entry of the source.

What was measured:
[1] = system: BDL rats; assay: Direct portal pressure measurement in bile duct ligated (BDL) rats; type: in vivo, rat
From the text: (§1) These experiments utilised an established animal model of cirrhosis, the bile duct ligated (BDL) rat. BDL rats may be generated by methods known in the art. For example, male Sprague-Dawley rats (200-250 g) may be used for this procedure. Following anaesthetisation, a mid-line laparotamy may be performed, the bile duct exposed, triply ligated with 4.0 silk suture, and severed between the second and third ligature. The wound is then closed in layers with absorbable suture, and the animal allowed to recover in a quiet room before being returned to the animal storage facility.
Three groups of rats were used in these experiments, BDL rats treated with vehicle, BDL rats treated with the anti-TNF monoclonal antibody infliximab, and sham treated rats.
Four weeks after BDL or sham surgery in Sprague-Dawley rats (n=14), BDL rats were gavaged with 5 mg/kg of the FXR agonist INT-747 (6-ethyl chenodeoxycholic acid, Intercept Pharmaceuticals Inc.) in vehicle (corn oil) for 5 days or with vehicle alone.
(§2) After 5 days of treatment rats underwent direct portal pressure assessment and were then sacrificed, and plasma and liver tissue collected for analysis. eNOS activity was determined radiometrically by the conversion of labelled radioactive arginine to citrulline. Protein expression for eNOS, iNOS, DDAH-1, and DDAH-2 were measured by standard Western Blotting techniques. Liver biopsies were evaluated for histopathology with H+E, Van Giesen and reticulin stains.
This method, termed ‘hydrodynamic gene therapy’, was used to determine the effect of transduction of DDAH-1 in BDL rats on portal pressure.
A plasmid containing human DDAH-1 cDNA was injected via a branch of the jugular vein into BDL or sham rodents produced as above. A control plasmid containing GFP was used as a control for the intervention in BDL animals. The animals underwent direct portal pressure measurement at 48 hours post intervention and plasma and tissue was collected for analysis of liver DDAH-1 mRNA (rtPCR) and protein expression (western blotting), as well as routine histology and biochemistry.

[2] = system: eNOS; assay: Hepatic eNOS activity (conversion of labelled arginine to 14C-citrulline) in BDL rats; type: in vivo, rat; details: BDL rats + infliximab vs BDL vehicle and sham
Procedure: FIG. 1 reports on the 14C-citrulline counts per minute per milligram of protein. This is a measure of eNOS activity. Experiments were carried out in bile-duct ligated (BDL) or sham treated rats. The bile duct ligated rats were treated with either infliximab (BDL+infliximab) or a vehicle (BDL).
as §1, §2

[3] = system: ADMA; assay: Liver tissue ADMA concentration in BDL rats; type: in vivo, rat; details: BDL rats + infliximab vs BDL vehicle
From the text: as §1
ADMA, SDMA and arginine were measured using fragmentation specific stable isotope dilution electrospray tandem mass spectrometry. In brief, samples de-proteinized with deuterated ADMA, SDMA and arginine, were chromatographed (acetonitrile:water, 1:1, with 0.025% formic acid) on a Teicoplanin guard column 10 mm×2.1 mm ID (Chirobiotic T, ASTEC Ltd, Congleton, UK), and analysed using a SCIEX API4000 (Applied Biosystems, Warrington, UK) in positive ion multiple reaction monitoring mode.

[4] = system: DDAH-I; assay: Hepatic DDAH-I protein expression in BDL rats; type: in vivo, rat; details: BDL rats + infliximab vs BDL vehicle and sham
From the text: as §1
Extracts containing equal amounts of protein were denatured and separated on 4-12% NuPAGE Bis-Tris Gels and blotted on to PVDF membranes (Invitrogen, UK). […] The bands were visualized using an enhanced ECL detection kit and quantified by densitometry. Loading accuracy was evaluated via membrane rehybridization with antibodies against mouse and rabbit anti-α tubulin (1:1000; upstate and Cell Signaling Technology, respectively).
as §2, with “Liver biopsies were evaluated for histopathology with H+E, Van Giesen and reticulin stains.” left out

[5] = system: patients with acute alcoholic hepatitis; details: systemic infliximab in association with prednisolone; cited from earlier work

Compound	reduction in portal pressure ([1]; BDL rats, INT-747 5 mg/kg gavage for 5 days, compared to BDL+vehicle, p<0.01)	portal pressure ([1]; BDL cirrhotic rats after infliximab, BDL 14±0.7, sham 5.5±0.3 mmHg)	reduction in portal pressure ([1]; BDL rats + infliximab compared with BDL rats (vehicle / iso-volumetric saline))	reduction in portal pressure ([1]; BDL rats + infliximab compared with BDL rats (vehicle / iso-volumetric saline), listed as Infliximab)	eNOS activity (14C-citrulline counts per minute per milligram of protein) [2]	ADMA levels in liver tissue [3]	DDAH-I expression in liver [4]	DDAH-I expression in liver ([4]; listed as Infliximab)	severe infections [5]
CC[C@H]1[C@@H](O)[C@@H]2[C@H](CC[C@]3(C)[C@@H]([C@H](C)CCC(=O)O)CC[C@@H]23)[C@@]2(C)CC[C@@H](O)C[C@@H]12 [INT-747, 6-ethyl chenodeoxycholic acid]	30%	–	–	–	–	–	–	–	–
infliximab: anti-TNF monoclonal antibody infliximab	–	9.5±0.6 mmHg	greater than 33%	more than 30%	restores eNOS activity towards similar levels to those seen in the sham animals; also recorded: Increased	substantially reduced; also recorded: reduction	restored towards sham levels; also recorded: significant increase	restored towards sham levels	high level of severe infections
